According to publication PMC10746543, “Design principles for cyclin K molecular glue degraders” (Nature Chemical Biology, 2023):
“And” between values parts separate entries of the source, which are not always exact repeats. Identical values can stand only once. Like-named read-outs stand apart in the source and are kept apart here.

Experiments:
CDK12–cyclin K and DDB1 = molecular target: T1, CDK12–cyclin K and DDB1 (Homo sapiens, UniProt Q16531+Q9NYV4, K965R); test: TR-FRET ternary complex formation assay (compound titration); type: binding; details: for EC50: read-out: TR-FRET EC50
T1 construct: His6–CDK12 (a.a. 713–1,052); full-length or beta-propeller B domain deletion (ΔBPB: a.a. 396–705 deleted) constructs of His6–DDB1ΔBPB, StrepII–Avi–DDB1, or His6–Spy–DDB1; made in house; host or cells: Trichoplusia ni High Five insect cells (baculovirus)
In short: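 TR-FRET ratio 520/490 nm; 70 μs delay before read to suppress background.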

[1] = test system: cyclin K–eGFP degradation reporter; test: Cyclin K reporter stability analysis (dual-color cyclin K–eGFP reporter); type: cell-based, human; details: source data sheet correlations; read-out: DC50
In short: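 Readout: flow-cytometric eGFP/mCherry ratio (geometric means, round mCherry+ gate) relative to the average of three DMSO wells. Reporter line was HEK293T–Cas9, treated 5 h with compound.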

HEK293T cells = test: Drug sensitivity assay (CellTiter-Glo viability) with or without MLN4924 pretreatment; type: cell-based, human; details: Supplementary Table 2
In short: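 Luminescent ATP read-out (CellTiter-Glo) after 3 days of drug exposure, normalised to DMSO controls. Cells were HEK293T–Cas9, pretreated with 100 nM MLN4924 or DMSO for 2 h before drug dispensing.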

CDK12–cyclin K = CDK12–cyclin K (Homo sapiens, UniProt Q9NYV4); test: Lanthascreen kinase binding assay, CDK12; details: for Lanthascreen raw signal, sheet CDK12: series r37, duplicates
Procedure: (§1) Lanthascreen experiments were performed using commercially available reagents (Thermo Fisher) and according to the manufacturer’s instructions.

CDK9–cyclin T = molecular target: T2, CDK9–cyclin T (Homo sapiens, UniProt P50750); test: Lanthascreen kinase binding assay, CDK9; details: for Lanthascreen TR-FRET signal (raw ratio), sheet CDK9: third titration set (r25), duplicates
T2 construct: purchased Thermo Fisher
Procedure: as §1

CDK2–cyclin A = molecular target: T3, CDK2–cyclin A (Homo sapiens, UniProt P24941); test: Lanthascreen kinase binding assay, CDK2; details: for Lanthascreen signal, sheet CDK2: raw replicates, experiment r36-r46
T3 construct: purchased Thermo Fisher
Procedure: as §1

T2 sequence (P50750 whole entry): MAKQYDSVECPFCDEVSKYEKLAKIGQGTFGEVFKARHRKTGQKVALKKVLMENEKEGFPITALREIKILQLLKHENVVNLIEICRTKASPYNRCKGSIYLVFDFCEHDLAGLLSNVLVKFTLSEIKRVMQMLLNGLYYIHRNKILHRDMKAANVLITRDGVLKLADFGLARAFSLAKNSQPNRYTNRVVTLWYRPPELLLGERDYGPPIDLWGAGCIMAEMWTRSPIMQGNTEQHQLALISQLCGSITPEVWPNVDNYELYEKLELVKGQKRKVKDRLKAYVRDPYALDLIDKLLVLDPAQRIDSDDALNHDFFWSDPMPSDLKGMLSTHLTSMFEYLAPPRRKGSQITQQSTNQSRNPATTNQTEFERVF
T2 sequence (O60563 whole entry partner): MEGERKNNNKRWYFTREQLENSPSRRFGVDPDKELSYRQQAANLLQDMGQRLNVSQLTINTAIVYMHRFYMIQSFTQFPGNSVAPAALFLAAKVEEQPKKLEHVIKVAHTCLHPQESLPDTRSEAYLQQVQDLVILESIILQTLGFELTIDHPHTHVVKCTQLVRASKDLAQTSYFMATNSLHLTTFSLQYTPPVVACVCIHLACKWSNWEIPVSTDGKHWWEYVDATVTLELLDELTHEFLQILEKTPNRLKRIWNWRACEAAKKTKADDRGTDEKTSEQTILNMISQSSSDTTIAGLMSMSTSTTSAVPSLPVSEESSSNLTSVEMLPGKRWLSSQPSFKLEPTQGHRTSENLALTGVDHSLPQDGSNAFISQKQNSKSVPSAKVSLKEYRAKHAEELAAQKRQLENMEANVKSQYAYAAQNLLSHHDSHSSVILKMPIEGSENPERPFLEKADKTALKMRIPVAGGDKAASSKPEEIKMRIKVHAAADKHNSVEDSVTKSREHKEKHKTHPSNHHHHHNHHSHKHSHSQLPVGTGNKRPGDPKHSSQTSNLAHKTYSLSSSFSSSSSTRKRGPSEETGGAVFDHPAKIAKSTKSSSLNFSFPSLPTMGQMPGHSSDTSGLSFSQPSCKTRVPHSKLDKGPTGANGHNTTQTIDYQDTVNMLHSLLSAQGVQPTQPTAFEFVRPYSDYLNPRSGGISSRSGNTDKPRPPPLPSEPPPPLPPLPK
T1 sequence (Q9NYV4 713-1052 K965R): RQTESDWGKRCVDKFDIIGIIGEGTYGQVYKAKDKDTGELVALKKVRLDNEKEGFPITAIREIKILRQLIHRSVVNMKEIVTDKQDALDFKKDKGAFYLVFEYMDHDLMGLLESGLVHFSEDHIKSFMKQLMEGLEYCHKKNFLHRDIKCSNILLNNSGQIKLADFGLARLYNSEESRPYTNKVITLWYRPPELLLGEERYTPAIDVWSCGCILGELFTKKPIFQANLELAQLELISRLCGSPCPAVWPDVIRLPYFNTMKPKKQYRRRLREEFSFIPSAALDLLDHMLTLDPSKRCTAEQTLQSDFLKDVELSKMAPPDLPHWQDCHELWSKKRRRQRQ
T1 sequence (O75909 1-267 partner): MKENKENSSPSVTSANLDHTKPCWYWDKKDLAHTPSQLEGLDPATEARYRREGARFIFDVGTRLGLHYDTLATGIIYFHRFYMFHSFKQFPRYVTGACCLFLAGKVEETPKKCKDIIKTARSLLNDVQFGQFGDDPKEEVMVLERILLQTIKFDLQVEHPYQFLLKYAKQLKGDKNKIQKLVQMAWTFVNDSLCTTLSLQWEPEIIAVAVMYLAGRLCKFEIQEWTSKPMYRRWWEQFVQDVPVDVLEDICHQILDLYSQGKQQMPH
T1 sequence (Q16531 whole entry): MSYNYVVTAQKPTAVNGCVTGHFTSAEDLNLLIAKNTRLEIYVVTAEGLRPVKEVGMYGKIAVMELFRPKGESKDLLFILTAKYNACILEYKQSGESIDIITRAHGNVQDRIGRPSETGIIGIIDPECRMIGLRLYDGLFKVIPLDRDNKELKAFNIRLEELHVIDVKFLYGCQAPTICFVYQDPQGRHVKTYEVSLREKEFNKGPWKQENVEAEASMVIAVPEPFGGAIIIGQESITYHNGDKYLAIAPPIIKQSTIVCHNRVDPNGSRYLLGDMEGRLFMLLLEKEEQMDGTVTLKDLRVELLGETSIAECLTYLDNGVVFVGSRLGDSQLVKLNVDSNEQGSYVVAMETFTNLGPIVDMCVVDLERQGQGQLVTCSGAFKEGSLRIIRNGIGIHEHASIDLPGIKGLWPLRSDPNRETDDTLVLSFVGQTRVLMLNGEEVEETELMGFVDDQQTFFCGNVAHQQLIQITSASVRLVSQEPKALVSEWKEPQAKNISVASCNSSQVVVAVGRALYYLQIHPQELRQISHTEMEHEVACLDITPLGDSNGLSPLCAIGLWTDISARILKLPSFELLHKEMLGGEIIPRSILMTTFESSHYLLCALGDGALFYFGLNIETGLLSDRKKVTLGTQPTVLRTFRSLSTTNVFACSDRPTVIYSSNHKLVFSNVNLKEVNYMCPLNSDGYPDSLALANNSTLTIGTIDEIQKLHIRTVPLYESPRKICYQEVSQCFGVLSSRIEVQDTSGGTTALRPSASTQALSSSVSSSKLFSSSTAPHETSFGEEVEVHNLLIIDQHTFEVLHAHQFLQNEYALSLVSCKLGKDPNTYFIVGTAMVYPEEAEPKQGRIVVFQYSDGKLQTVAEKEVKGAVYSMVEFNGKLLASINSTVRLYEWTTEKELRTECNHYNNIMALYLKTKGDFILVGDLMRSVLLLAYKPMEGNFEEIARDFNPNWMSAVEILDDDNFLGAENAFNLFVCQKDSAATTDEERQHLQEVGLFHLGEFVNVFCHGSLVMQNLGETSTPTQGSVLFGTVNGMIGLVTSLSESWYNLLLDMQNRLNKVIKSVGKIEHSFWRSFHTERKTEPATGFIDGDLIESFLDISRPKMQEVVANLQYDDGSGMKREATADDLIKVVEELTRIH
CDK12–cyclin K, sequence (Q9NYV4 713-1052): as the sequence (Q9NYV4 713-1052 K965R) above, with R253K counted along it
CDK12–cyclin K, sequence (O75909 1-267 partner limits assumed): as the sequence (O75909 1-267 partner) above

TR-FRET signal at compound concentration 0.468 nM (CDK12–cyclin K and DDB1; compound concentration 0.468 nM, raw replicate titration data): 0.2789 and 0.2869 and 0.2441 and 0.2388 | TR-FRET signal at compound concentration 2.16 nM (CDK12–cyclin K and DDB1; compound concentration 2.16 nM, raw replicate titration data): 0.4628 and 0.4735 and 0.4069 and 0.4155 | TR-FRET signal at compound concentration 3.6 nM (CDK12–cyclin K and DDB1; compound concentration 3.6 nM, raw replicate titration data): 0.8592 and 0.9781 and 0.8008 and 0.8631 | TR-FRET signal at compound concentration 7.92001 nM (CDK12–cyclin K and DDB1; compound concentration 7.92001 nM, raw replicate titration data): 1.943 and 2.09 and 1.796 and 1.964 | TR-FRET signal at compound concentration 15.84 nM (CDK12–cyclin K and DDB1; compound concentration 15.84 nM, raw replicate titration data): 3.635 and 3.77 and 3.448 and 3.586 | TR-FRET signal at compound concentration 30.96 nM (CDK12–cyclin K and DDB1; compound concentration 30.96 nM, raw replicate titration data): 4.1538 and 4.3056 and 4.1745 and 4.207 | TR-FRET signal at compound concentration 62.6401 nM (CDK12–cyclin K and DDB1; compound concentration 62.6401 nM, raw replicate titration data): 4.1015 and 4.249 and 4.2539 and 4.27 | TR-FRET signal at compound concentration 125.28 nM (CDK12–cyclin K and DDB1; compound concentration 125.28 nM, raw replicate titration data): 4.175 and 4.298 and 4.2336 and 4.275 | TR-FRET signal at compound concentration 244.8 nM (CDK12–cyclin K and DDB1; compound concentration 244.8 nM, raw replicate titration data): 4.152 and 4.298 and 4.309 and 4.217 | TR-FRET signal at compound concentration 993.601 nM (CDK12–cyclin K and DDB1; compound concentration 993.601 nM, raw replicate titration data): 4.169 and 4.339 and 4.296 and 4.306 | TR-FRET signal at compound concentration 2001.6 nM (CDK12–cyclin K and DDB1; compound concentration 2001.6 nM, raw replicate titration data): 4.114 and 4.419 and 4.291 and 4.3409 | EC50 (CDK12–cyclin K and DDB1; in vitro complex formation, 50 nM CDK12–cyclin K, 100 nM DDB1, text and figures): 9 ± 0.2 nM | EC50 (CDK12–cyclin K and DDB1; source data sheet correlations): 8.77 nM | DC50 [1]: 13 nM | CDK inhibitory selectivity, result in words (CDK12–cyclin K; Lanthascreen across CDK2/9/12): CDK12 selective | IC50 (CDK12–cyclin K; Supplementary Table 2, read-out: Lanthascreen IC50 [nM] CDK12): 289 nM | Lanthascreen raw signal, sheet CDK12 (CDK12–cyclin K; compound 0.038147 nM): 0.01361 and 0.01362 | Lanthascreen raw signal, sheet CDK12 (CDK12–cyclin K; compound 0.152588 nM): 0.01347 and 0.01332 | Lanthascreen raw signal, sheet CDK12 (CDK12–cyclin K; compound 0.610352 nM): 0.0127 and 0.0128 | Lanthascreen raw signal, sheet CDK12 (CDK12–cyclin K; compound 9.76563 nM): 0.01118 and 0.01013 | Lanthascreen raw signal, sheet CDK12 (CDK12–cyclin K; compound 39.0625 nM): 0.009017 and 0.009485 | Lanthascreen raw signal, sheet CDK12 (CDK12–cyclin K; compound 156.25 nM): 0.008554 and 0.0083 | Lanthascreen raw signal, sheet CDK12 (CDK12–cyclin K; compound 625 nM): 0.007301 and 0.007453 | Lanthascreen raw signal, sheet CDK12 (CDK12–cyclin K; compound 2500 nM): 0.006348 and 0.005959 | Lanthascreen raw signal, sheet CDK12 (CDK12–cyclin K; compound 10000 nM): 0.004442 and 0.004613 | IC50 (CDK9–cyclin T; Supplementary Table 2, read-out: Lanthascreen IC50 [nM] CDK9): 4480 nM | Lanthascreen TR-FRET signal (raw ratio), sheet CDK9 (CDK9–cyclin T; compound 0.038147 nM): 0.02012 and 0.0204 | Lanthascreen TR-FRET signal (raw ratio), sheet CDK9 (CDK9–cyclin T; compound 0.152588 nM): 0.02154 and 0.01902 | Lanthascreen TR-FRET signal (raw ratio), sheet CDK9 (CDK9–cyclin T; compound 0.610352 nM): 0.02155 and 0.01817 | Lanthascreen TR-FRET signal (raw ratio), sheet CDK9 (CDK9–cyclin T; compound 9.76563 nM): 0.02115 and 0.01877 | Lanthascreen TR-FRET signal (raw ratio), sheet CDK9 (CDK9–cyclin T; compound 39.0625 nM): 0.01878 and 0.01673 | Lanthascreen TR-FRET signal (raw ratio), sheet CDK9 (CDK9–cyclin T; compound 156.25 nM): 0.02006 and 0.01591 | Lanthascreen TR-FRET signal (raw ratio), sheet CDK9 (CDK9–cyclin T; compound 625 nM): 0.01306 and 0.01486 | Lanthascreen TR-FRET signal (raw ratio), sheet CDK9 (CDK9–cyclin T; compound 2500 nM): 0.01488 and 0.01061 | Lanthascreen TR-FRET signal (raw ratio), sheet CDK9 (CDK9–cyclin T; compound 10000 nM): 0.007693 and 0.006879 | Lanthascreen signal, sheet CDK2 (CDK2–cyclin A; Compound 0.038147 nM): 0.01344 and 0.01366 | Lanthascreen signal, sheet CDK2 (CDK2–cyclin A; Compound 0.152588 nM): 0.01349 and 0.01367 | Lanthascreen signal, sheet CDK2 (CDK2–cyclin A; Compound 0.610352 nM): 0.01404 and 0.01386 | Lanthascreen signal, sheet CDK2 (CDK2–cyclin A; Compound 9.76563 nM): 0.01422 and 0.01378 | Lanthascreen signal, sheet CDK2 (CDK2–cyclin A; Compound 39.0625 nM): 0.01396 and 0.01343 | Lanthascreen signal, sheet CDK2 (CDK2–cyclin A; Compound 156.25 nM): 0.01511 and 0.01391 | Lanthascreen signal, sheet CDK2 (CDK2–cyclin A; Compound 625 nM): 0.01354 and 0.01331 | Lanthascreen signal, sheet CDK2 (CDK2–cyclin A; Compound 2500 nM): 0.01311 and 0.01172 | Lanthascreen signal, sheet CDK2 (CDK2–cyclin A; Compound 10000 nM): 0.009843 and 0.008946 | IC50 (CDK2–cyclin A; Supplementary Table 2, read-out: Lanthascreen IC50 [nM] CDK2): 5730 nM
SMILES: CC(C)n1cnc2c(NCc3nc4cc(Cl)c(Cl)cc4[nH]3)nc(N3CCOCC3)nc21 [DS18]
EC50 (HEK293T cells; Homo sapiens, HEK-293T, HEK293T viability, 72 h, compound alone, read-out: Cellular assays EC50): 101 nM | Toxicity rescue (HEK293T cells; MLN4924-mediated cytotoxicity rescue, 10 µM used where n.d.): 89%
